{
  "source": "patent US10883143B2",
  "about": "“Compositions and methods for enhancing odorant receptor activity” (DUKE UNIVERSITY, priority 2009, dated 2021)",
  "key": {"[1]": {"target": "T1, OR-S6 coexpressed with M3 (Mus musculus, UniProt Q9ERZ3)", "T1 construct": "The open reading frames were amplified using Phusion polymerase; expressed in transfected cells; host or cells: HEK293T", "T1 sequence (Q9ERZ3 whole entry)": "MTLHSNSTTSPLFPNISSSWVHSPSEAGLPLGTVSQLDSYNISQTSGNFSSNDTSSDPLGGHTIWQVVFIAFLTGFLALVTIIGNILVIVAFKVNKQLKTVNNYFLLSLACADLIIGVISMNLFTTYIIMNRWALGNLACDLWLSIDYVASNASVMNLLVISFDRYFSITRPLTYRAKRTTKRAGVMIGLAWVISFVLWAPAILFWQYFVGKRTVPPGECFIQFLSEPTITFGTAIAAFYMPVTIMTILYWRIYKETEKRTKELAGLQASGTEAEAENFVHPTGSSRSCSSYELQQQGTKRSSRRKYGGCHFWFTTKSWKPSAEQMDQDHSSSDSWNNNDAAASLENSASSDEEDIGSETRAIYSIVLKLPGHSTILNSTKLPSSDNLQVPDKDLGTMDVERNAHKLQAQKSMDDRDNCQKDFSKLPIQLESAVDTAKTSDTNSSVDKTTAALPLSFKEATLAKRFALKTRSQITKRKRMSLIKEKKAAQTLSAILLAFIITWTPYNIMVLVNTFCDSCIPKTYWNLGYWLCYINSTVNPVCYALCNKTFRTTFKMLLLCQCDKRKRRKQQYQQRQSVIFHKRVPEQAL", "experiment": "CRE-luciferase reporter assay of OR activation in HEK293T cells", "format": "cell-based", "protocol": "(§1) Given that GPCRs that form heteromeric interactions often show functional co-modulation, experiments were conducted to determine if altering M3 activity directly affects the odor-mediated activation of ORs. […] HEK293T cells Hana3A cells were maintained in minimal essential medium (MEM) containing 10% fetal bovine serum (M10) and penicillin-streptomycin and amphotericin solution. Lipofectamine 2000 (Invitrogen) was used for transfection following manufacturer's protocols. […] Briefly, cAMP response element (CRE)-luciferase (Stratagene) was used to measure OR activation. […] Cells were plated on poly-D-lysine-coated 96-well plates (NUNC) 2 days prior to assay. Cells were transfected with ORs in either Hana3A or HEK293T cell lines along with various combinations of RTP1S, Ric-8b, M3, CRE-luciferase, and pRL-SV40. 18-24 hours after transfection, cells were rinsed with 50 μl of CD293 (Invitrogen) and stimulated with 25 μl of odorant solution dissolved in CD293. Cells were incubated for 4 hours at 37° C. and 5% CO2 before luciferase assays. Protocols for measuring luciferase and Renilla luciferase activities were as described by the manufacturer (Promega). Normalized luciferase activity was calculated with the formula (LN−Lmin)/(Lmax−Lmin), where LN is the luminescence of firefly luciferase in response to the odorant, Lmin is the minimum luciferase value on a plate or set of plates, and Lmax is the maximum luciferase value on a plate or set of plates. The data was analyzed with Microsoft Excel and GraphPad Prism 5. Odorants and muscarinic agonists and antagonists were from Sigma except for darifenacin, which was purchased from Santa Cruz."}, "[2]": {"system": "OR-S6, RTP1S and M3 coexpressed", "experiment": "Alphascreen cAMP assay in HEK293T cells", "format": "cell-based, mouse", "protocol": "When OR, RTP1S, and M3 were coexpressed, the background level was slightly higher than other conditions.\nAlphascreen cAMP assay (Perkin Elmer) was used to measure changes of cAMP. Cells were plated on 96-cell plate (poly D lysine coated, NUNC). 24 hours after transfection, cells were washed in Hanks containing 5 mM HEPES, 0.1% BSA and 500 uM IBMX for 30 minutes. The cells were then stimulated with Hanks containing 5 mM HEPES, 0.1% BSA and 500 uM IBMX and corresponding chemicals. The stimulated cells were incubated for 10 min at room temperature before lysis. The manufacture's protocol was used to measure cAMP."}, "[3]": {"system": "olfactory sensory neurons (OSNs)", "experiment": "Calcium imaging of acutely dissociated OSNs stimulated with a mix of 10 odorants", "format": "cell-based, mouse", "conditions": "paired T-test"}, "[4]": {"system": "OR-S6 coexpressed with M3", "experiment": "CRE-luciferase reporter assay of OR activation in HEK293T cells", "format": "cell-based, mouse", "conditions": "HEK293T coexpressing OR-S6, RTP1S and M3 vs. without M3", "protocol": "as §1"}, "M3": {"target": "T2, M3 (Mus musculus, UniProt Q9ERZ3)", "T2 construct": "The open reading frames were amplified using Phusion polymerase; expressed in transfected cells; host or cells: HEK293T", "T2 sequence (Q9ERZ3 whole entry)": "as above", "experiment": "Calcium imaging with HEK293T cells expressing M3", "format": "cell-based", "conditions": "carbachol 10^−7M", "excerpt": "(§2) Since M3 potentiates OR signaling, the possibility that OR activation may also enhance M3 signaling was considered."}, "OR-S6": {"system": "OR-S6", "experiment": "Calcium imaging with HEK293T cells expressing OR-S6 without M3", "format": "cell-based, mouse", "protocol": "as §2\nCalcium imaging with HEK293T cells was performed as described (see, e.g., Y. Ishimaru et al., Proc Natl Acad Sci USA 103, 12569 (Aug. 15, 2006); herein incorporated by reference in its entirety)."}, "[5]": {"system": "OR-S6 coexpressed with M3", "experiment": "Calcium imaging with HEK293T cells coexpressing OR-S6 and M3", "format": "cell-based, mouse", "conditions": "for calcium response to odor alone: OR-S6 and its cofactors (mRTP) coexpressed with M3, 10^−4M nonanedioic acid", "excerpt": "as §2"}},
  "note": "“Also recorded” adds a separate entry of the source.",
  "data": [
    {"smiles": "CN1[C@@H]2CC[C@H]1C[C@@H](OC(=O)C(CO)c1ccccc1)C2", "note": "(stereo partly drawn) [atropine]", "values": [
      {"measurement": "OR-S6 activation by nonanedioic acid on co-stimulation with muscarinic ligand", "setting": "[1]", "result": "hindered the potentiation effect of M3"}
    ]},
    {"smiles": "C[N+](C)(C)CCOC(N)=O", "note": "[carbachol]", "values": [
      {"measurement": "rise in cAMP following OR stimulation, costimulation with carbachol", "setting": "[2]; carbachol 10^−7M, HEK293T transfected with OR-S6, RTP1S and M3", "result": "even more dramatic; also recorded: further stimulates production of cAMP"}
    ]},
    {"smiles": "NC(=O)C(c1ccccc1)(c1ccccc1)[C@@H]1CCN(CCc2ccc3c(c2)CCO3)C1", "note": "[darifenacin]", "values": [
      {"measurement": "odor-mediated calcium responses of OSNs (Fluo-4/Fura-red ratio, Anet)", "setting": "[3]; 10^−7M antagonist with mix of 10 odorants each at 10^−5M", "result": "significantly attenuated"},
      {"measurement": "odor-mediated calcium responses of OSNs (Fluo-4/Fura-red ratio, Anet)", "setting": "[3]; 10^−7M antagonist with mix of 10 odorants each at 10^−5M, listed as darifenecin", "result": "attenuated odor-mediated responses of OSNs"}
    ]},
    {"smiles": "C[C@H](CCC(=O)O)C[C@H](C)C[C@H](C)C(=O)/C=C(\\O)[C@H](C)C[C@H](C)C/C=C/[C@@H](C)[C@@H](O)[C@@H](C)[C@@H](O)C[C@@H]1CC[C@@](C)([C@H]2CC[C@@](C)([C@@H](C)O)O2)O1", "note": "[ionomycin]", "values": [
      {"measurement": "CRE-luciferase reporter response without OR ligands", "setting": "[4]", "result": "reporter gene responses were not seen"},
      {"measurement": "CRE-luciferase reporter response without OR ligands", "setting": "[4]; listed as Ionomycin", "result": "had no effect on OR activation"}
    ]},
    {"smiles": "O=C(O)CCCCCCCC(=O)O", "note": "[nonanedioic acid]", "values": [
      {"measurement": "cellular cAMP levels following stimulation with OR-S6 ligand", "setting": "[2]; cells coexpressing OR-S6, RTP1S and M3 vs. without M3", "result": "dramatic increase in cellular cAMP levels"},
      {"measurement": "calcium response", "setting": "M3", "result": "No response was observed"},
      {"measurement": "calcium response", "setting": "OR-S6; HEK293T cells expressing OR-S6 alone", "result": "No calcium response was observed"},
      {"measurement": "calcium response", "setting": "OR-S6; cells coexpressing OR and Gα15olf (positive control)", "result": "generate a calcium response"},
      {"measurement": "calcium response", "setting": "OR-S6; cells coexpressing OR and Gα15olf (positive control), listed as nonandioic acid", "result": "increase cellular calcium"},
      {"measurement": "calcium response to odor alone", "setting": "[5]", "result": "strong calcium response"},
      {"measurement": "calcium response to odor alone", "setting": "[5]; listed as nonandioic acid", "result": "calcium level increases"},
      {"measurement": "calcium response", "setting": "[5]; cells expressing both S6 and M3 in the absence of RTP", "result": "does not elicit a calcium response"}
    ]},
    {"smiles": "O[Si](CCCN1CCCCC1)(c1ccc(F)cc1)C1CCCCC1", "note": "(stereo not drawn) [pfHHSiD]", "values": [
      {"measurement": "odor-mediated calcium responses of OSNs (Fluo-4/Fura-red ratio, Anet)", "setting": "[3]; 10^−6M antagonist with mix of 10 odorants each at 10^−5M", "result": "Equivalent results; also recorded: attenuated odor-mediated responses of OSNs"}
    ]}
  ]
}
